Where two headings read alike, the source gives them in different places. Some results are limits rather than exact numbers.

Assay [1] concerns the target T1, arginase (Bos taurus, UniProt Q2KJ64).
T1 construct: purchased Alexis Biochemicals (Lausen, Switzerland)
T1 sequence (Q2KJ64 1-322): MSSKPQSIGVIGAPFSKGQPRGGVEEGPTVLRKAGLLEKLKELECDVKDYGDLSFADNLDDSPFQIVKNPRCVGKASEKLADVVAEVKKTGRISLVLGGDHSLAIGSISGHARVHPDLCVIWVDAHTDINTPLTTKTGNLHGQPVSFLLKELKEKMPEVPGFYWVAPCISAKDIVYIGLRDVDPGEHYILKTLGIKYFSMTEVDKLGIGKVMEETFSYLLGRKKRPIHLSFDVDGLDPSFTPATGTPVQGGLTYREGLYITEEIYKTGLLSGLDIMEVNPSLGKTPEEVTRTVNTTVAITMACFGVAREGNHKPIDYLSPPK
Nature of the assay: Arginase activity assay, conversion of L-[guanidine-14C]-arginine to [14C]-urea. The assay is classed as biochemical, bovine. As to conditions: for IC50: 1 mM MnCl2, pH 9.6, 1 h at 37°C, means ± SD (n = 4); for inhibitory efficiency for arginase, fold weaker than NOHA: compared with NOHA (IC50 340 µM). From the text: (§1) L-Arginine, ADMA, N^G-hydroxy-L-arginine (NOHA), nicotinamide adenine dinucleotide phosphate reduced form (NADPH), flavin adenine dinucleotide (FAD), flavin mononucleotide (FMN), (6R)-5,6,7,8-tetrahydrobiopterin (BH4), recombinant eNOS (from bovine), iNOS (from mouse macrophage), Dowex® AG50W-X8 cation-exchange resin (mesh size, 100–200) were all purchased from Sigma Chemicals (St. Louis, MO). Ultima Gold XR scintillation liquid was from PerkinElmer (Shelton, CA). Recombinant nNOS (from rat) and N^G-hydroxy-nor-arginine (nor-NOHA) were obtained from Cayman Chemicals. Arginase (from bovine liver) was from Alexis Biochemicals (Lausen, Switzerland). L-NMMA was from Calbiochem, Darmstadt, Germany. All other chemicals were obtained from Wako Pure Chemical Industries, Osaka, Japan.
Assays for arginase activity were performed by monitoring the conversion of L-[guanidine-^14C]-arginine (Moravek, Brea, CA) to [^14C]-urea as previously described. Recombinant arginase (0.5 µg of protein, specific activity: 0.094 units/mg protein) (10 µl) was added to a mixture (final volume of 100 µl) containing 10 mM Tris-HCl buffer, pH 9.6, 1 mM MnCl2, and 0.16 µCi/ml of L-[guanidine-^14C]-arginine (specific activity: 1.85–2.22 GBq/mmol). After incubation for 1 h at 37°C, the reactions were terminated by addition of 0.4 ml of stop buffer containing 250 mM sodium acetate and 100 mM urea, pH 4.5. Samples were then passed through a 1 ml column of Dowex AG50W-8X (Na^+-form) to remove unmetabolized L-[guanidine-^14C]-arginine. [^14C]-Urea was eluted twice with 1 ml of distilled water, and the eluted fractions mixed with 10 ml of cocktail (Ultima Gold XR) were quantified using a liquid scintillation counter. A reaction mixture containing L-[guanidine-^14C]-arginine in the absence of enzyme was incubated as a control to determine background counts. The inhibitory effects of arginase were examined in the presence and absence of the test compounds at various concentrations.

The target in assay [2] is T2, dimethylarginine dimethylaminohydrolase (DDAH) (Rattus norvegicus, UniProt O08557).
T2 construct: from tissue; host or cells: rat kidney homogenate supernatant
Description: DDAH activity assay, conversion of L-[3H]-NMMA to L-[3H]-citrulline by rat kidney homogenate. Type of assay: biochemical. Here is the method:
The DDAH activity was determined by monitoring the conversion of L-[4,5-^3H]-NMMA (American Radiolabeled Chemicals, Inc., St. Louis, MO) to L-[^3H]-citrulline as previously described. Rat kidney tissues (0.5 g) were homogenized in 1 ml of ice-cold 0.1 M sodium phosphate buffer (SPB, pH 6.5), and then centrifuged at 10,000 rpm for 5 min at 4°C. The supernatants were analyzed for protein content using a BCA protein reagent kit with bovine serum albumin as the standard. The supernatants were diluted with SPB to 1 mg protein in 50 µl, and then were added to a reaction mixture (a final volume of 100 µl) containing 0.1 M SPB (pH 6.5) and 0.1 µCi/ml of L-[^3H]-NMMA (specific activity: 1.48–2.96 TBq/mmol). After incubation for 1 h at 37°C, the reactions were terminated by keeping the tubes on ice for 5 min. Samples were then passed through a 1 ml column of Dowex AG50W-8X (Na^+-form) to remove unmetabolized L-[^3H]-NMMA. L-[^3H]-Citrulline was eluted twice with 1 ml of distilled water, and the eluted fractions mixed with 10 ml of cocktail (Ultima Gold XR) were quantified using a liquid scintillation counter. A reaction mixture containing L-[^3H]-NMMA in the absence of enzyme was added to the Dowex column to determine background counts. The effects of arginine derivatives on the enzyme activities in the presence and absence of the test compounds at various concentrations were examined.

The target of assay [3] is T3, recombinant eNOS (Bos taurus, UniProt P29473).
T3 construct: purchased Sigma Chemicals (St. Louis, MO)
Description: NOS activity assay, conversion of L-[14C(U)]-arginine to L-[14C(U)]-citrulline, eNOS. Type of assay: biochemical, bovine. As to conditions: 50 µM L-arginine, 30 min at 37°C, pH 7.4; means ± SD (n = 4).
Description: as §1, with “L-NMMA was from Calbiochem, Darmstadt, Germany.” left out
(§2) The NOS activities were determined by monitoring the conversion of L-[^14C(U)]-arginine (Moravek, Brea, CA) to L-[^14C(U)]-citrulline as previously described. Recombinant enzymes of three isoforms of NOS (specific activity: eNOS 0.03, nNOS 2.9, iNOS 0.62 units/mg protein) (10 µl) were added to a reaction mixture (final volume of 100 µl) consisting of 50 mM HEPES buffer (pH 7.4), 1 mM NADPH, 4 µM FAD, 4 µM FMN, 10 µM BH4, 1 mg/L calmodulin, 2.5 mM CaCl2, 50 µM L-arginine and 0.5 µCi/ml of L-[^14C(U)]-arginine (specific activity: 8.14–11.1 GBq/mmol). After incubation for 30 min at 37°C, the reactions were terminated by addition of 0.5 ml of 20 mM HEPES (pH 5.5) containing 2 mM EDTA and 2 mM EGTA. Samples were passed through a 1 ml column of Dowex AG50W-X8 (Na^+-form) to remove unconverted L-[^14C(U)]-arginine. L-[^14C(U)]-Citrulline was eluted twice with 1 ml of distilled water, and the eluted fractions mixed with 10 ml of cocktail (Ultima Gold XR) were quantified using a liquid scintillation counter. A reaction mixture containing L-[^14C(U)]-arginine without the enzyme was incubated as a control to determine background counts.

The target in assay [4] is T4, recombinant iNOS (Mus musculus, UniProt P29477).
T4 construct: purchased Sigma Chemicals (St. Louis, MO)
Nature of the assay: NOS activity assay, conversion of L-[14C(U)]-arginine to L-[14C(U)]-citrulline, iNOS. Type of assay: biochemical. Particulars: 50 µM L-arginine, 30 min at 37°C, pH 7.4; means ± SD (n = 4).
Description: as §1, with “L-NMMA was from Calbiochem, Darmstadt, Germany.” left out
as §2

For assay [5], the target named is T5, recombinant nNOS (Rattus norvegicus, UniProt P29476).
T5 construct: purchased Cayman Chemicals
Nature of the assay: NOS activity assay, conversion of L-[14C(U)]-arginine to L-[14C(U)]-citrulline, nNOS. The assay is classed as biochemical. Particulars: 50 µM L-arginine, 30 min at 37°C, pH 7.4; means ± SD (n = 4).
Description: as §1, with “L-NMMA was from Calbiochem, Darmstadt, Germany.” left out
as §2

[6] abbreviates: rat kidney extracts, SPB pH 6.5, 1 h at 37°C, means ± SD (n = 4), read-out: IC50 DDAH.

T2 sequence (O08557 whole entry): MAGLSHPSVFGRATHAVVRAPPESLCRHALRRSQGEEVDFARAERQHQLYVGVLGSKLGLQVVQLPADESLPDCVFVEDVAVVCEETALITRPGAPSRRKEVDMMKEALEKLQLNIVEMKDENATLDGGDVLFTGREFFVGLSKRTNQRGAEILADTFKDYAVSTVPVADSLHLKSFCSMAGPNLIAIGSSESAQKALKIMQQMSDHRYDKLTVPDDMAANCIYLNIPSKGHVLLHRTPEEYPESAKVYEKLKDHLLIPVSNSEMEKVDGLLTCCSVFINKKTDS

For orientation: IC50 means the concentration needed to halve the response being measured. In the case of `N=C(NO)NCC[C@H](N)C(=O)O` [Nor-NOHA, N^G-hydroxy-nor-arginine, reference compound], the half-inhibitory concentration (IC50) is 230 ± 26 µM in assay [1] and 1770 ± 250 µM in assay [2].

As to `NC(CCCCNCC(=O)O)C(=O)O` (stereo not shown) [CML, carboxymethyl-lysine], the concentration for half-maximal inhibition (IC50) in assay [3] was > 5000 µM; in assay [4], > 5000 µM; in assay [5] it was 1930 ± 300 µM; in assay [1], 1060 ± 60 µM; in assay [2] (setting [6]) it was > 5000 µM. For the same compound, the “inhibitory efficiency for arginase, fold weaker than NOHA” value in assay [1] is listed as “approximately 3 fold”.

Take `N=C(NCCCC(N)C(=O)O)NCC(=O)O` (stereo not shown) [CMA, N^ω-Carboxymethyl-arginine]: the IC50 was 830 ± 36 µM in assay [3]; 1160 ± 40 µM in assay [4]; > 5000 µM in assay [5]; 1470 ± 120 µM in assay [1]; > 5000 µM in assay [2]. In addition, the “inhibitory efficiency for arginase, fold weaker than NOHA” value in assay [1] was “approximately 3 fold”.

With `NC(=NCCCC(N)C(=O)O)NO` [NOHA, N^G-hydroxy-L-arginine, reference compound], half-maximal inhibition in assay [1] (IC50) required 340 ± 12 µM.

In the case of `CN(C)C(=N)NCCCC(N)C(=O)O` [ADMA, asymmetric N^G,N^G-dimethyl-L-arginine, reference compound], the 50% inhibitory concentration (IC50) in assay [3] was 16 ± 9 µM; in assay [4], 24 ± 1 µM; in assay [5] it was 23 µM.

Regarding `CC1NC(NCCCC(N)C(=O)O)=NC1=O` (stereo not shown) [MG-H1, N^δ-(5-hydro-5-methyl-4-imidazolon-2-yl)-ornithine], the concentration for half-maximal inhibition (IC50) in assay [3] was 1280 ± 75 µM; in assay [4], 2970 ± 560 µM; in assay [5], 4170 ± 380 µM; in assay [1], > 5000 µM; in assay [2] (setting [6]), > 5000 µM.

As for `CC(NC(=N)NCCCC(N)C(=O)O)C(=O)O` (stereo not shown) [CEA, N^ω-carboxyethyl-arginine], the half-inhibitory concentration (IC50) in assay [3] was 3870 ± 680 µM; in assay [4], > 5000 µM; in assay [5], > 5000 µM; in assay [1] it was > 5000 µM; in assay [2], > 5000 µM.
